This is an account of results in ChEMBL document CHEMBL4811263, “Tulipiferamide A, an Alkamide from Liriodendron tulipifera, Exhibits an Anti-Inflammatory Effect via Targeting IKKβ Phosphorylation” (J Nat Prod, 2021).

The structures appear in SMILES notation. Active and inactive are the calls of the source. The calls are words filed in the database; no cut-off is given here.

The IC50 is the concentration that inhibits the measured activity by half.

The target in assay [1] is T1, Inhibitor of nuclear factor kappa-B kinase subunit alpha (Mus musculus) (UniProt Q60680).
T1 sequence (whole entry): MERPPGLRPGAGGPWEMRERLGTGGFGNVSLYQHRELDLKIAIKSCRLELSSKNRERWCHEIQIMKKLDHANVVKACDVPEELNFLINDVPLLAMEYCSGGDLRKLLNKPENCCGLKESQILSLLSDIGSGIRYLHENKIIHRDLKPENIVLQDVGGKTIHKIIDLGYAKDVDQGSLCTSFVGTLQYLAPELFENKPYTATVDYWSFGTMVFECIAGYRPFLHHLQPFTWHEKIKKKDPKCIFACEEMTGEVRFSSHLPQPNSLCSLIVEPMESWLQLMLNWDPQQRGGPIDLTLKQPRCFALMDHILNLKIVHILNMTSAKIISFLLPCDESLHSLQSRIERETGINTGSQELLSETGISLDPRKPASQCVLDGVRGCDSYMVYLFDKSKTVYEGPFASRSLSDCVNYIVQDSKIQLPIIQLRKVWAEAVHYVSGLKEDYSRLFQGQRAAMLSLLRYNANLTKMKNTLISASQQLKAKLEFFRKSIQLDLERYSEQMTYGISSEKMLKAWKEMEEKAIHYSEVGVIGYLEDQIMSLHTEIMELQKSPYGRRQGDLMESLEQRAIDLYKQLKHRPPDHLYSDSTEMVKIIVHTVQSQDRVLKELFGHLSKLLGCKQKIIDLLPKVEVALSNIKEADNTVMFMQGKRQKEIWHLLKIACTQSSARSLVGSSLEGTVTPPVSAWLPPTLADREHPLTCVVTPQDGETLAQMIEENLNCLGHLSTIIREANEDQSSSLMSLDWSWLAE
Nature of the assay: Inhibition of IKKalpha mediated NF-kappaB activation in mouse RAW264.7 cells assessed as reduction TWEAK-induced processing of p100 to p52 by Western blotting analysis. In kind it is cell-based. On the technique in general: A western blot detects proteins with antibodies after separation by electrophoresis.

Assay [2] has as its system RAW264.7. Briefly: Antiinflammatory activity in mouse RAW264.7 cells assessed as inhibition of LPS-induced TNFalpha mRNA expression at 30 uM preincubated for 30 mins followed by LPS stimulation by RT-PCR analysis. In kind it is functional, cell-based.
Assay [3] concerns the target T1, Inhibitor of nuclear factor kappa-B kinase subunit alpha (Mus musculus). Nature of the assay: Inhibition of IKKalpha mediated NF-kappaB activation in mouse RAW264.7 cells assessed as TWEAK-induced degradation of TRAF2 by Western blotting analysis. The assay is classed as cell-based.
For assay [4], the system named is RAW264.7. Briefly: Antiinflammatory activity in mouse RAW264.7 cells assessed as inhibition of LPS-induced IL6 mRNA expression at 30 uM preincubated for 30 mins followed by LPS stimulation by RT-PCR analysis. The assay is classed as functional, cell-based.
For assay [5], the system named is HEK293. Nature of the assay: Inhibition of IKK phosphorylation in HEK293 cells transfected with IKKbeta by Western blotting analysis. The assay is classed as cell-based. The settings on record: Homo sapiens.
Assay [6] deals with RAW264.7. Briefly: Antiinflammatory activity in mouse RAW264.7 cells assessed as inhibition of LPS-induced COX-2 protein expression at 30 uM preincubated for 30 mins followed by LPS stimulation by Western blot analysis. In kind it is functional, cell-based.
Assay [7] relates to RAW264.7. Briefly: Antiinflammatory activity in mouse RAW264.7 cells assessed as inhibition of LPS-induced IL-1beta protein expression at 30 uM preincubated for 30 mins followed by LPS stimulation by Western blot analysis. In kind it is functional, cell-based.
The test system of assay [8] is RAW264.7. Nature of the assay: Antiinflammatory activity in mouse RAW264.7 cells assessed as inhibition of LPS-induced iNOS mRNA expression at 30 uM preincubated for 30 mins followed by LPS stimulation by RT-PCR analysis. In kind it is functional, cell-based.
For assay [9], the system named is RAW264.7. Nature of the assay: Inhibition of NF-kappaB activation in mouse RAW264.7 cells assessed as inhibition of LPS-induced relA phosphorylation at 30 uM preincubated for 30 mins followed by LPS stimulation by Western blotting analysis. In kind it is cell-based.
Assay [10] relates to RAW264.7. Briefly: Antiinflammatory activity in mouse RAW264.7 assessed as inhibition of LPS-induced NO production preincubated for 30 mins followed by LPS stimulation measured after 24 hrs by Griess reagent based assay. The assay is classed as functional, cell-based. For orientation: Griess reagent forms a coloured azo dye with nitrite.
Assay [11] addresses T2, Inhibitor of nuclear factor kappa-B kinase subunit beta (Mus musculus) (UniProt O88351).
T2 sequence (whole entry): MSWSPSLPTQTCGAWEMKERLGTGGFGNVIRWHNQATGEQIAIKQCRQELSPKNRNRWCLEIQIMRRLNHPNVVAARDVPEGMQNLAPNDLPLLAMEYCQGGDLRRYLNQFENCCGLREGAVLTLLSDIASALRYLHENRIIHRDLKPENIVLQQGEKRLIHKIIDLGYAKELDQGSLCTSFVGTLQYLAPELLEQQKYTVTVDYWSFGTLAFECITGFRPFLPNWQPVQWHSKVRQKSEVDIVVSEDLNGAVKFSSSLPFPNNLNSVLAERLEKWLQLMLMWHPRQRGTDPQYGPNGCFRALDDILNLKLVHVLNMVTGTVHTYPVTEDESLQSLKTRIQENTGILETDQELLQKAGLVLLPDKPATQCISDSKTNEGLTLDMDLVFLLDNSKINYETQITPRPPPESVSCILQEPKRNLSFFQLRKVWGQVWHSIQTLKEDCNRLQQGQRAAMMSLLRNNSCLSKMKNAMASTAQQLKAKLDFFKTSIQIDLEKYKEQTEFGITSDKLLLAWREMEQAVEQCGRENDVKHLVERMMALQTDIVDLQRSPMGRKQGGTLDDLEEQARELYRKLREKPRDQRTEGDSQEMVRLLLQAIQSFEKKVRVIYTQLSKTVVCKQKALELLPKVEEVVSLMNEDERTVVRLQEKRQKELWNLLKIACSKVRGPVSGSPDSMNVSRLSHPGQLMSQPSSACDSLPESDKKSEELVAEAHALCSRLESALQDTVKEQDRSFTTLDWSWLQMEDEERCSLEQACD
Briefly: Inhibition of IKKbeta mediated NF-kappaB activation in mouse RAW264.7 cells assessed as inhibition of TWEAK-induced p65 phosphorylation on serine 536 by Western blotting analysis. The assay is classed as cell-based.

For assay [12], the system named is RAW264.7. Briefly: Inhibition of MAPK in mouse RAW264.7 cells assessed as inhibition of LPS-induced ERK phosphorylation at 30 uM preincubated for 30 mins followed by LPS stimulation by Western blotting analysis. The assay is classed as cell-based.
For assay [13], the target named is T1, Inhibitor of nuclear factor kappa-B kinase subunit alpha (Mus musculus). Nature of the assay: Inhibition of IKKalpha mediated NF-kappaB activation in mouse RAW264.7 cells assessed as reduction in LIGHT-induced processing of p100 to p52 by Western blotting analysis. In kind it is cell-based.
Assay [14] deals with RAW264.7. Nature of the assay: Inhibition of MAPK in mouse RAW264.7 cells assessed as inhibition of LPS-induced JNK phosphorylation at 30 uM preincubated for 30 mins followed by LPS stimulation by Western blotting analysis. In kind it is cell-based.
Assay [15] has as its system RAW264.7. Briefly: Inhibition of MAPK in mouse RAW264.7 cells assessed as inhibition of LPS-induced p38 phosphorylation at 30 uM preincubated for 30 mins followed by LPS stimulation by Western blotting analysis. In kind it is cell-based.
Assay [16] has as its system RAW264.7. Nature of the assay: Inhibition of NF-kappaB activation in mouse RAW264.7 cells assessed as inhibition of LPS-induced IkappaBalpha phosphorylation at 30 uM preincubated for 30 mins followed by LPS stimulation by Western blotting analysis. In kind it is cell-based.
The test system of assay [17] is RAW264.7. Briefly: Inhibition of NF-kappaB activation in mouse RAW264.7 cells assessed as inhibition of LPS-induced IKKalpha phosphorylation at 30 uM preincubated for 30 mins followed by LPS stimulation by Western blotting analysis. In kind it is cell-based.
For assay [18], the target named is T1, Inhibitor of nuclear factor kappa-B kinase subunit alpha (Mus musculus). Nature of the assay: Inhibition of IKKalpha mediated NF-kappaB activation in mouse RAW264.7 cells assessed as TWEAK-induced degradation of TRAF3 by Western blotting analysis. The assay is classed as cell-based.
For assay [19], the system named is RAW264.7. Briefly: Antiinflammatory activity in mouse RAW264.7 cells assessed as inhibition of LPS-induced iNOS protein expression at 30 uM preincubated for 30 mins followed by LPS stimulation by Western blot analysis. The assay is classed as functional, cell-based.
The test system of assay [20] is RAW264.7. Nature of the assay: Inhibition of NF-kappaB activation in mouse RAW264.7 cells assessed as inhibition of LPS-induced IKKbeta phosphorylation at 30 uM preincubated for 30 mins followed by LPS stimulation by Western blotting analysis. In kind it is cell-based.
In assay [21] the test system is RAW264.7. Nature of the assay: Antiinflammatory activity in mouse RAW264.7 cells assessed as inhibition of LPS-induced IL-1beta mRNA expression at 30 uM preincubated for 30 mins followed by LPS stimulation by RT-PCR analysis. In kind it is functional, cell-based.
For assay [22], the system named is RAW264.7. Briefly: Antiinflammatory activity in mouse RAW264.7 cells assessed as inhibition of LPS-induced COX-2 mRNA expression at 30 uM preincubated for 30 mins followed by LPS stimulation by RT-PCR analysis. In kind it is functional, cell-based.
Assay [23] is described as follows: Inhibition of LPS-indued NF-kappaB activation in mouse RAW264.7 cells preincubated for 30 mins followed by LPS stimulation and measured after 10 hrs by luciferase assay. The assay is classed as cell-based.

Turning to `CCCCC/C=C\C=C\C(=O)NCCc1ccccc1`, the inhibition result in assay [1], in [3], in [12], in [13], in [14] and in assay [15] was “inactive” in each case. Further, the inhibition entry in assay [18] is “inactive”. Besides, the result in [2], in assay [4], in assay [6], in assay [7], in assay [8] and in assay [19] was Active. For the same molecule, the outcome in assay [21] and in [22] was Active. Also, the inhibition result in assay [5], in [9], in [11], in assay [16], in assay [17] and in assay [20] was “Active” in each case. Also, the IC50 in [10] was determined as 13.3 µM; in [23], 21.6 µM.
